The record followed here is patent publication EP4763837A1, “PHOTOCHROMIC COMPOUND, CURABLE COMPOSITION, OPTICAL ARTICLE, LENS, AND EYEGLASSES” (TOKUYAMA CORPORATION, priority 2023, dated 2025).

Data set [1] is described as follows: Solubility of photochromic compound in polymerizable compounds. Type of data set: physicochemical. Conditions: 35 µmol/g in radical polymerizable compound composition of Example 21, 65 to 70°C; for Dissolution for 15 min / Dissolution for 30 min / Dissolution for 45 min: stirring and ultrasonic irradiation; for Dissolution for 1 hour: head reads 60 min in Tables 8 to 14. Set-up: key: 1: No haze is seen when checked under transmission of light, and the sample is completely dissolved.; 2: A very thin haze is seen to the extent that it can be seen under transmission of light.; 3: A thin haze that can be seen under transmission of light is seen.; 4: A haze can be seen even without transmission of light. On the procedure: The photochromic compounds according to Examples and Comparative examples shown in Table 5 were evaluated for solubility in polymerizable compounds.
Specifically, a sample was prepared by adding each of the photochromic compounds to the composition, which consisted of a radical polymerizable compound, among the curable compositions used in Example 21.
Note that, this test was performed using "YOKAI-KUN USS-1" manufactured by NIHONSEIKI KAISHA LTD. under the following conditions: • Dissolution temperature: 65 to 70°C • Stirring condition: Stirring dial of 5. Ultrasonic irradiation condition: Irradiation interval of 3 sec.
Dissolution was checked every 15 minutes up to 1 hour later, the sample was visually checked by transmitting light through the sample, and a degree of dissolution was evaluated according to the following four evaluation criteria.
• 1: No haze is seen when checked under transmission of light, and the sample is completely dissolved. • 2: A very thin haze is seen to the extent that it can be seen under transmission of light. • 3: A thin haze that can be seen under transmission of light is seen. • 4: A haze can be seen even without transmission of light.
A shorter time required for the evaluation result to be 1 means higher solubility.

Data set [2] in a line: Photochromic property of photochromic laminate made by coating method. Type of data set: physicochemical. The following applies: for Residual ratio: A96/A0 x 100 after 96 hours accelerated degradation, xenon weather meter X25. From the text: First, the photochromic compound obtained in Example 1, a photoinitiator, and a polymerizable compound were mixed to obtain a curable composition.
The polymerizable compound was a combination of the following radical polymerizable monomers:
Polyethylene glycol dimethacrylate (average molecular weight: 736): 42 parts by mass • Polyethylene glycol dimethacrylate (average molecular weight: 536): 12 parts by mass • Trimethylolpropane methacrylate: 38 parts by mass γ-Methacryloyloxypropyltrimethoxysilane: 2 parts by mass Glycidyl methacrylate: 1 part by mass.
Note that, in the curable composition, the photochromic compound was added in an amount of 0.25 mmol taking a total amount of the radical polymerizable monomers as 100 g.
Phenylbis(2,4,6-trimethylbenzoyl)phosphine oxide (photoinitiator: Omnirad 819): 0.3 parts by mass Ethylene bis(oxyethylene) bis[3-(5-tert-butyl-4-hydroxy-m-tolyl) propionate] (stabilizer, Irganox 245): 1 part by mass Bis(1,2,2,6,6-pentamethyl-4-piperidyl)sebacate: 3 parts by mass Leveling agent (L-7001) manufactured by DuPont Toray Specialty Materials K.K.: 0.1 parts by mass.
Using this curable composition, a photochromic laminate was obtained by a lamination method including polymerization as follows.
First, a thiourethane plastic lens with a center thickness of 2 mm and a refractive index of 1.60 was prepared as an optical substrate. Note that, the thiourethane plastic lens had been alkaline-etched in a 10% sodium hydroxide aqueous solution at 50°C for 5 minutes in advance, and then thoroughly washed with distilled water.
A spin coater (1H-DX2, manufactured by MIKASA CO., LTD) was used to coat a surface of the above-mentioned plastic lens with a moisture-curing primer (product name: TR-SC-P, manufactured by Tokuyama Corporation) at a rotation speed of 70 rpm for 15 seconds, followed by 1000 rpm for 10 seconds. Then, about 2 g of the photochromic curable composition obtained above was spin-coated at a rotation speed of 60 rpm for 40 seconds, followed by 600 rpm for 10 to 20 seconds so as to achieve a photochromic coating layer with a thickness of 40 µm.
The lens of which surface had been coated with the photochromic curable composition (photochromic coating layer) was irradiated with light for 90 seconds in a nitrogen gas atmosphere using a metal halide lamp with an output of 200 mW/cm^2 to cure the coating. The resultant was then further heated at 110°C for 1 hour to produce a photochromic laminate with a photochromic layer.
Photochromic laminates were produced using the photochromic compounds obtained in Examples 2 to 20 in the same manner as in Example 21.
Photochromic laminates were obtained using photochromic compounds represented by Formulae (A) to (D) below in the same manner as in Example 21. [drawing 89] [drawing 90] [drawing 91] [drawing 92] [drawing 93]
The resulting photochromic laminates were evaluated by the below-mentioned methods. • (1) Photochromic property • [1] Maximum absorption wavelength (λmax): This is the maximum absorption wavelength after color development determined by a spectrophotometer manufactured by Otsuka Electronics Co., Ltd. (instantaneous multichannel photo detector MCPD3000) and was used as an index of a color tone upon color development. • [2] Color developing density at 23°C (A23): This is a difference between an absorbance {ε(240)} after irradiation with light at 23°C for 240 seconds and an absorbance ε(0) when not irradiated with light at the maximum absorption wavelength and was used as an index of a color developing density. The higher this value is, the better a photochromic property is. • [3] Color fading half-life at 23°C [τ1/2 (sec).)]: This is a period of time taken by an absorbance at the maximum absorption wavelength of a sample to decrease to 1/2 of {ε(240)-ε(0)} when irradiation is stopped after irradiation with light at 23°C for 240 seconds, and was used as an index of a color fading rate. The shorter this period of time is, the faster the color fading rate is. • [4] […]

With `CCCC1(C)c2ccccc2-c2c1c1c(c3cc(OC)c(-c4c(OC)cc(OC)cc4OC)cc23)OC(c2ccc(OC)cc2)(c2ccc(N(c3ccccc3)c3ccccc3)cc2)C=C1` (stereo not drawn) [Formula (89-1)], in data set [1], the “Dissolution for 15 min” value came to 4, the “Dissolution for 30 min” value came out at 2, the “Dissolution for 45 min” value was determined as 1 and the “Dissolution for 1 hour” value is given as 1.
Regarding `CCCC1(CC)c2cc(Sc3c(C)cccc3C)ccc2-c2c1c1c(c3cc(OC)ccc23)OC(c2ccc(OC)cc2)(c2ccc(N(C)c3ccccc3)cc2)C=C1` (stereo not drawn) [Formula (88-1)], the “Color fading half-life at 23°C” value in data set [2] came out at 0.717 min. For the same compound, the Residual ratio in data set [2] (laminate by coating method) is given as 68%.
For `COc1ccc(C2(c3ccc(N4CCOCC4)cc3)C=Cc3c4c(c5cc(-c6ccc(N7CCOCC7)cc6)c(OC)cc5c3O2)-c2ccc(C)cc2C4(C)C)cc1` (stereo not drawn) [Formula (G), reference compound], in data set [1], the “Dissolution for 15 min” value turned out to be 4, the “Dissolution for 30 min” value was found to be 3, the “Dissolution for 45 min” value amounted to 3 and the “Dissolution for 1 hour” value is recorded as 2.
Take `CCCCC1(CC)c2ccccc2-c2c1c1c(c3cc(OC)c(-c4ccccc4N4CCOCC4)cc23)OC(c2ccc(OC)cc2)(c2ccc(OC)cc2)C=C1` (stereo not drawn) [Formula (81-2)]: the “Color fading half-life at 23°C” value in data set [2] is 1.67 min.
`COc1ccc(C2(c3ccc(N4CCOCC4)cc3)C=Cc3c4c(c5ccc(OC)cc5c3O2)-c2ccc(OC)cc2C42CC(C)(C)CC(C)(C)C2)cc1` (stereo not drawn) [Formula (E), reference compound]: in data set [1], the “Dissolution for 15 min” value is 4, the “Dissolution for 30 min” value is 3, the “Dissolution for 45 min” value is reported as 3 and the “Dissolution for 1 hour” value is 2.
As to `CCCOc1ccc(C2(c3ccc(OC)cc3)C=Cc3c4c(c5cc(OC)c(OC)cc5c3O2)-c2ccc(N(C)c3ccccc3)cc2C4(C)C)cc1` (stereo not drawn) [Formula (I), reference compound], in data set [1], the “Dissolution for 15 min” value is recorded as 4, the “Dissolution for 30 min” value amounted to 4, the “Dissolution for 45 min” value came out at 3 and the “Dissolution for 1 hour” value is recorded as 3.
On to `CCCCC1(CC)c2ccccc2-c2c1c1c(c3cc(OC)c(-c4ccc(N(c5ccccc5)c5ccccc5)cc4)cc23)OC(c2ccc(N(C)c3ccccc3)cc2)(c2ccc(OCCC)c(F)c2)C=C1` (stereo not drawn) [Formula (76-6)], for which the “Color fading half-life at 23°C” value in data set [2] was determined as 1.17 min. Besides, the Residual ratio in data set [2] (laminate by coating method) came out at 68%.
As for `CCCC1(CC)c2cc(C)ccc2-c2c1c1c(c3cc(OC)c(-c4ccc(N5CCOCC5)cc4)cc23)OC(c2ccc(C)cc2)(c2ccc(N(C)c3ccccc3)cc2)C=C1` (stereo not drawn) [Formula (84-1)], in data set [2], the “Color fading half-life at 23°C” value turned out to be 2 min. The Residual ratio in data set [2] (laminate by coating method) stood at 62%.
As to `COc1ccc(C2(c3ccc(N(c4ccccc4)c4ccccc4)cc3)C=Cc3c4c(c5cc(-c6c(OC)cc(OC)cc6OC)c(OC)cc5c3O2)-c2ccccc2C4(C)C)cc1` (stereo not drawn) [Formula (L), reference compound], in data set [1], the “Dissolution for 15 min” value came out at 4, the “Dissolution for 30 min” value is on record as 3, the “Dissolution for 45 min” value was 2 and the “Dissolution for 1 hour” value is on record as 1.
Take `CCCOc1ccc(C2(c3ccc(OC)cc3)C=Cc3c4c(c5cc(OC)c(OC)cc5c3O2)-c2ccc(Sc3cccc(C(F)(F)F)c3)cc2C4(CC)CCC)cc1` (stereo not drawn) [Formula (72-3)]: the Residual ratio in data set [2] (laminate by coating method) turned out to be 57%.
As for `COc1ccc(C2(c3ccc(OC)cc3)C=Cc3c4c(c5ccc(OC)cc5c3O2)-c2ccc(OC(F)(F)F)cc2C4(C)C)cc1` [Formula (H), reference compound], in data set [1], the “Dissolution for 15 min” value was 4, the “Dissolution for 30 min” value turned out to be 3, the “Dissolution for 45 min” value turned out to be 3 and the “Dissolution for 1 hour” value is given as 2.
In the case of `CCC1(CC)c2ccccc2-c2c1c1c(c3cc(OC)c(N(C)c4ccccc4)cc23)OC(c2ccc(OC)cc2)(c2ccc(OC)cc2)C=C1` [Formula (F), reference compound], in data set [1], the “Dissolution for 15 min” value was 4, the “Dissolution for 30 min” value was 3, the “Dissolution for 45 min” value is on record as 3 and the “Dissolution for 1 hour” value came to 2.
Turning to `CCCCC1(CC)c2cc(N(C)c3ccccc3)ccc2-c2c1c1c(c3cc(OC)c(OC)cc23)OC(c2ccc(OC)cc2)(c2ccc(OCCC)cc2)C=C1` (stereo not drawn) [Formula (82-1)], in data set [1], the “Dissolution for 15 min” value was 3, the “Dissolution for 30 min” value amounted to 2, the “Dissolution for 45 min” value is 1 and the “Dissolution for 1 hour” value is given as 1.
Consider `CCCOc1ccc(C2(c3ccc(OC)cc3)C=Cc3c4c(c5cc(C)c(OC)cc5c3O2)-c2ccc(N3CCOc5ccccc53)cc2C4(C)CC)cc1` (stereo not drawn) [Formula (75-2)], for which the “Color fading half-life at 23°C” value in data set [2] turned out to be 2.33 min. Moreover, the Residual ratio in data set [2] (laminate by coating method) was determined as 64%.
In the case of `CCC1(CC)CCC2(CC1)c1cc(OC)ccc1-c1c2c2c(c3cc(OC)c(Sc4c(C)cccc4C)cc13)OC(c1ccc(OC)cc1)(c1ccc(N3CCOCC3)cc1)C=C2` (stereo not drawn) [Formula (J), reference compound], in data set [1], the “Dissolution for 15 min” value was 4, the “Dissolution for 30 min” value is recorded as 3, the “Dissolution for 45 min” value turned out to be 3 and the “Dissolution for 1 hour” value is recorded as 2.
`CCCCCC1(CCCC)c2ccccc2-c2c1c1c(c3cc(OC)c(N4CCCc5ccccc54)cc23)OC(c2ccc(OC)cc2)(c2ccc(OCCC)cc2)C=C1` (stereo not drawn) [Formula (16-1)]: the Residual ratio in data set [2] (laminate by coating method) is listed as 59%. Further, the “Color developing density at 23°C” value in data set [2] (laminate by coating method, absorbance difference after 240 seconds irradiation at the maximum absorption wavelength of the same line) was 1.29 -.
Turning to `CCCCCCC1(CCCC)c2cc(OC)ccc2-c2c1c1c(c3cc(OC)c(Sc4c(C)cccc4C)cc23)OC(c2ccc(OC)cc2)(c2ccc(N3CCOCC3)cc2)C=C1` (stereo not drawn) [Formula (85-1)], in data set [1], the “Dissolution for 15 min” value was 3, the “Dissolution for 30 min” value was determined as 2, the “Dissolution for 45 min” value worked out at 1 and the “Dissolution for 1 hour” value was 1.
With `COc1ccc(C2(c3ccc(N4CCOCC4)cc3)C=Cc3c4c(c5cc(Sc6c(C)cccc6C)c(OC)cc5c3O2)-c2ccc(OC)cc2C4(C)C)cc1` (stereo not drawn) [Formula (K), reference compound], in data set [1], the “Dissolution for 15 min” value came to 4, the “Dissolution for 30 min” value is recorded as 4, the “Dissolution for 45 min” value is on record as 3 and the “Dissolution for 1 hour” value was 3.
On to `CCC(C)C1(CC)c2cc(OC)ccc2-c2c1c1c(c3cc(OC)ccc23)OC(c2ccc(OC)cc2)(c2ccc(N3CCOCC3)cc2)C=C1` (stereo not drawn) [Formula (3-2)], for which, in data set [1], the “Dissolution for 15 min” value is 3, the “Dissolution for 30 min” value was determined as 1, the “Dissolution for 45 min” value stood at 1 and the “Dissolution for 1 hour” value is reported as 1.
